Molecules are shown by their SMILES.

The test system of assay [1] is subcutaneous gliomas (rat glioma C6 cells). Put plainly: Progression of established subcutaneous C6 gliomas in rats. The format is in vivo. As to conditions: for average size (volume) of the subcutaneous gliomas: vs carrier. The procedure: Rat C6 glioma cells were cultured as previously described (Cuevas P et al. Neurol Res, 2005). The C6 cells cultured to confluence in 75 cm^2 flasks were removed and implanted under the abdominal skin in anesthetized rats. The existence of a tumor in the implantation area was observed five days after the implantation of the tumor cells. Only the rats in which the existence of a tumor was observed were randomly assigned to be treated with daily intraperitoneal injections of 2,5-dihydroxybenzene sulfonate (DHBS; 100 mg/kg/day), 2,5-diacetoxybenzene sulfonate (DABS; 100 mg/kg/day) or the carrier (0.9% NaCl). After 10 days of treatment, the subcutaneous gliomas were removed and their volume was calculated according to the formula V=4/3π·(L/2)·(A/2)^2 (in mm^3) where L is the larger diameter and A is the smaller diameter, both expressed in mm.
Tumor cells elude the programmed cell death process or apoptosis that normal cells experience. Apoptosis induction in tumor cells is one way to confront the development of a tumor. To evaluate the effect of potassium 2,5-dihydroxybenzene sulfonate […] on tumor cell apoptosis, 6 μm thick sections of the subcutaneous gliomas described in example 4 were made. The sections were stained with hematoxylin and eosin and observed at a magnification of 313 times using immersion oil. In these conditions, cell apoptosis is shown by the existence of apoptotic bodies appearing as strongly chromogenic granules in the cell nucleus which is frequently fragmented.

The target in assay [2] is T1, Fibroblast Growth Factor-1 (FGF-1) (Homo sapiens, UniProt P05230). Put plainly: FGF-1-induced mitogenesis in quiescent Balb/c 3T3 fibroblast cultures. As to conditions: quiescent Balb/c 3T3 fibroblasts. The format is cell-based. On the procedure: The evaluated compounds were used in the form of potassium salt, except in the first case which used calcium salt. The experiments were carried out as described in Fernandez-Tornero C et al. J Biol Chem, 2003.
T1 sequence (P05230 whole entry, species assumed): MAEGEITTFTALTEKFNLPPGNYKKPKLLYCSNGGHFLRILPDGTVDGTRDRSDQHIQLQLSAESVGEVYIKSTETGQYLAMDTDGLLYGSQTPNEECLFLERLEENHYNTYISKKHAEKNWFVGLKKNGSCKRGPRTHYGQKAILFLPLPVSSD

Assay [3] has as its target T1, Fibroblast Growth Factor-1 (FGF-1). Put plainly: Crystal diffraction of FGF-1:compound complexes. Format: binding. The following applies: acetoxyl groups conserved when bound. On the procedure:
Based on the crystal diffraction of the FGF-1:2-acetoxy-5-hydroxybenzene sulfonic acid, FGF-1:5-acetoxy-2-hydroxybenzene sulfonic acid and FGF-1:2,5-diacetoxybenzene sulfonic acid complexes, the structures of the complexes were calculated and represented. FIGS. 13, 14 and 15, which show the surface of the dyed protein according to its electrostatic potential (light grey, negative charge; dark grey, positive charge; white, regions with no charge), show the manner in which 2-acetoxy-5-hydroxybenzene sulfonic acid, 5-acetoxy-2-hydroxybenzene sulfonic acid and 2,5-diacetoxybenzene sulfonic acid interact, respectively, with FGF-1.

For assay [4], the system named is rat glioma C6 cells. Nature of the assay: Rat glioma C6 cell proliferation, crystal violet staining. Format: cell-based. As to conditions: 48 h. The procedure:
The cell line used was rat glioma C6 cells. The cells were cultured as previously described (Cuevas P et al. Neurol Res, 2005). The cells were cultured as adherent cells in Dulbecco's modified Eagle's medium, supplemented with 7.5% (v/v) of fetal bovine serum, 10 μg/ml of streptomycin and 10 units/ml of penicillin. The tumor cells were seeded in 24-well plates at a density of 10,000 cells/well, and were incubated at 37° C. in a humidified chamber with 5% CO2. Once adhered, the cells were treated or not (controls) with 2,5-dihydroxybenzoate at 100, 200, 500 or 1000 μM and they were allowed to proliferate for 48 h. After this time the glioma cell proliferation was evaluated by means of staining the fixed cells with crystal violet. The number of cells is proportional to the amount of retained dye, which was spectrophotometrically determined by measuring the absorbance at 595 nm once the dye was extracted from the cells.
The cell line used was the C6 cell line and the experiment was carried out as described in Example 2. Once adhered, the cells were treated or not (controls) with increasing concentrations of 2,5-DHC (10, 25, 50 and 100 μM) and they were allowed to proliferate for 48 h. After this time the glioma cell proliferation was evaluated by means of staining the fixed cells with crystal violet. The number of cells is proportional to the amount of retained dye, which was determined spectrophotometrically by measuring absorbance at 595 nm once the dye was extracted from the cells.
The cell line used was the C6 cell line and the experiment was carried out as described in examples 2 and 3. Once adhered, the cells were treated or not (controls) with (5A-2HBS) (500 μM) or (2A-5HBS) (500 μM) and they were allowed to proliferate for 48 h. After this time the glioma cell proliferation was evaluated by means of staining the fixed cells with crystal violet. The number of cells is proportional to the amount of retained dye, which was determined spectrophotometrically by measuring the absorbance at 595 nm once the dye was extracted from the cells.

The subject of assay [5] is bFGF-induced fibrosis. Put plainly: bFGF-induced fibrosis, subcutaneous gelatin sponge implant. Format: in vivo, Sprague-Dawley rats. As to conditions: sponge with bFGF plus compound 100 μM, 7 days. The procedure:
Sterile gelatin sponges (1 mm^3; Curaspon Dental, Clinimed Holding, Zwanenburg, The Netherlands) were subcutaneously implanted in the dorsal region of the neck in Sprague-Dawley rats after the induction of intraperitoneal anesthesia. The animals were split into two groups: group A, the sponges were moistened with 200 μl of saline solution which contained 25 μg/ml of heparin and 10 μg/ml of basic FGF (bFGF); group B, the sponges were moistened in the same solution as in group A, but which solution further contained 2,5-dihydroxybenzoate (100 μM). After 7 days, the sponges and the surrounding subcutaneous fat were removed and histologically analyzed.

Assay [6] deals with human prostate cancer PC-3 cells. Nature of the assay: Human tumor cell proliferation, XTT viability method, PC-3. The format is cell-based. As to conditions: 1-200 μM, 96 h. The procedure: (§1) The cell lines used were the human prostate cancer PC-3 cells and human lung cancer A549 cells. 2000 cells were seeded per well in 96-well plates and they were allowed to adhere overnight. Then the cells were treated or not (controls) with potassium 2,5-diacetoxybenzene sulfonate (DABS) (1-200 μM) and they were allowed to proliferate for 96 h. After this time, the PC-3 and A549 cell proliferation was evaluated by determining the final number of cells by means of the viability method of yellow tetrazolium salt (XTT). The data were expressed as a percentage of the control (without treatment).
Background: Tetrazolium dyes change colour on reduction, which living cells bring about.

The test system is the same in assay [7]. Put plainly: Subcutaneous PC-3 tumor progression in athymic mice. As to conditions: 100 mg/kg daily i.p., 15 days. The format is in vivo, athymic mice (Nu/Nu). The procedure: 5×10^6 human prostate cancer PC-3 cells were subcutaneously injected in male athymic mice (Nu/Nu) of 6-8 weeks of age and weighing 20-26 g. Ten days after the implantation of the tumor cells, the mice were randomly split into two groups: one of them received a daily injection of potassium 2,5-diacetoxybenzene sulfonate (DABS) by intraperitoneal route at a dose of 100 mg/kg dissolved in saline (0.9% NaCl) whereas the other group received a daily injection of carrier (saline). The treatments were administered for 15 days. The volumes of the tumors induced by the implantation of PC-3 cells were measured through the skin on alternating days using a Vernier caliper. The volume was calculated using the formula V=(D×2d)/2, where D is the larger diameter in mm, d is the smaller diameter in mm and V is the volume in mm3. At the end of treatment, the mice were sacrificed and the tumors were weighed.

Assay [8] concerns human lung cancer A549 cells. Put plainly: Human tumor cell proliferation, XTT viability method, A549. The format is cell-based. The following applies: 1-200 μM, 96 h. The procedure: as §1

`O=S(=O)([O-])c1cc(O)ccc1O.[K+]` [DHBS, potassium 2,5-dihydroxybenzene sulfonate, reference compound]: the “average size (volume) of the subcutaneous gliomas” value in assay [1] (i.p. 100 mg/kg/day, 10 days) is given as “less than that of the rats treated with carrier”. For the same compound, in assay [2], the “inhibition of mitogenesis induced by FGF-1” value is given as “inhibition of the mitogenesis induced by fibroblast growth factor 1”.

`CC(=O)Oc1ccc(O)cc1S(=O)(=O)[O-].[K+]` [2A-5HBS, potassium 2-acetoxy-5-hydroxybenzene sulfonate]: the “structural interaction with FGF-1 (binding site in co-crystal)” value (“structural interaction” for short) in assay [3] is given as “occupy a site that is very close to the one that has been described occupied by 2,5-dihydroxybenzene sulfonic acid”.

In the case of `CC(=O)Oc1ccc(O)c(S(=O)(=O)[O-])c1.[K+]` [5A-2HBS, potassium 5-acetoxy-2-hydroxybenzene sulfonate], the “structural interaction” value in assay [3] was “occupy a site that is very close to the one that has been described occupied by 2,5-dihydroxybenzene sulfonic acid”.

On to `O=C(O)C=Cc1cc(O)ccc1O` [2,5-DHC, 3-(2,5-dihydroxyphenyl)-2-propenoic acid], for which the C6 cell proliferation entry in assay [4] (50 μM) was “reduced the C6 cell proliferation to less than half”; in assay [4] (100 μM), “proliferation was reduced to one tenth”.

Consider `O=C([O-])c1cc(O)ccc1O.[K+]` [2,5-dihydroxybenzoate, potassium 2,5-dihydroxybenzoate], for which the “bFGF-induced fibrosis (fibroblasts in septa of connective tissue of adipose tissue)” value in assay [5] is given as “reduces bFGF-induced fibrosis”. Moreover, the “rat glioma C6 cell proliferation (absorbance at 595 nm)” value in assay [4] (100, 200, 500 or 1000 μM) is “inhibited rat glioma C6 cell proliferation in a concentration-dependent manner, an effect which was statistically significant at the concentrations of 500 and 1000 μM”.

For `CC(=O)Oc1ccc(OC(C)=O)c(S(=O)(=O)[O-])c1.[K+]` [DABS, potassium 2,5-diacetoxybenzene sulfonate], in assay [3], the “structural interaction” value is recorded as “occupy a site that is very close to the one that has been described occupied by 2,5-dihydroxybenzene sulfonic acid”. In addition, in assay [1] (100 mg/kg/day i.p., 10 days), the “tumor cell apoptosis in subcutaneous glioma sections (hematoxylin and eosin)” value was “a large number of tumor cells in apoptosis can be observed”. For the same compound, the “probability of being tumor-free (χ2 test)” value in assay [1] (DABS group vs DHBS group, 100 mg/kg/day) is listed as “greater probability of being tumor-free”. In addition, the “average size (volume) of the subcutaneous gliomas” value in assay [1] (i.p. 100 mg/kg/day, 10 days) is “this average volume was even less”. Moreover, in assay [1] (i.p. 100 mg/kg/day, 10 days, all rats had established tumors prior to treatment), the “rats tumor-free when treatment ended” value turned out to be 4 rats. Besides, the “PC-3 cell proliferation (percentage of control)” value in assay [6] is “caused a significant inhibition”. In assay [7], the “tumor growth (tumor volume)” value is “significantly reduced the human prostate cell tumor growth” and the “weight of the extracted tumor when treatment ended” value is listed as “significant reduction of the weight of the extracted tumor”. Further, the “A549 cell proliferation (percentage of control)” value in assay [8] was “caused a significant inhibition”.
